Experimental data from PubChem BioAssay (NCI).
“And” between values parts separate entries of the source, which are not always exact repeats. Equal entries are not always repeated.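 The compound was tested at five concentrations on cells cultured in 96-well plates, with a 48-hour exposure period. Here, GI50 denotes the concentration required for 50% inhibition of growth. TGI marks complete inhibition of growth.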

Legend:
Assay in all cases: DTP human tumour cell line panel, 48 h
OVCAR-3 ovarian = system: OVCAR-3 ovarian
U251 CNS = system: U251 CNS
SF-268 CNS = system: SF-268 CNS
NCI-H522 lung = system: NCI-H522 lung
UACC-62 melanoma = system: UACC-62 melanoma
MOLT-4 leukemia = system: MOLT-4 leukemia
SNB-19 CNS = system: SNB-19 CNS
IGROV1 ovarian = system: IGROV1 ovarian
786-0 renal = system: 786-0 renal
A549 NSCLC = system: A549 NSCLC

Structure (SMILES) | GI50 (OVCAR-3 ovarian) | TGI (OVCAR-3 ovarian) | GI50 (U251 CNS) | TGI (U251 CNS) | GI50 (SF-268 CNS) | TGI (SF-268 CNS) | GI50 (NCI-H522 lung) | TGI (NCI-H522 lung) | GI50 (UACC-62 melanoma) | TGI (UACC-62 melanoma) | GI50 (MOLT-4 leukemia) | TGI (MOLT-4 leukemia) | GI50 (SNB-19 CNS) | TGI (SNB-19 CNS) | GI50 (IGROV1 ovarian) | TGI (IGROV1 ovarian) | GI50 (786-0 renal) | TGI (786-0 renal) | GI50 (A549 NSCLC) | TGI (A549 NSCLC)
CNC(=O)c1cc(Oc2ccc(NC(=O)Nc3ccc(Cl)c(C(F)(F)F)c3)c(F)c2)ccn1 | 3.05 µM and 3.03 µM | 11.6 µM and > 10 µM | 2.79 µM and 2.46 µM | 11.3 µM and > 10 µM | 2.93 µM and 3.02 µM | 14 µM and > 10 µM | 1.73 µM and 1.7 µM | 5.84 µM and 6.43 µM | 0.98 µM | 4.73 µM | 2.21 µM and 1.91 µM | 5.75 µM and 6.59 µM | 4.27 µM and 4.06 µM | > 41.6 µM | 2.75 µM and 1.85 µM | 11.2 µM and > 10 µM | 3.39 µM and 3.06 µM | > 83.2 µM | 2.39 µM and 2.64 µM | > 24.1 µM
O=[N+]([O-])C(/C=N/Nc1ccccc1)/C=N/Nc1ccccc1 |  | > 100 µM |  | > 100 µM |  | > 100 µM |  | > 100 µM |  | > 100 µM |  | > 100 µM |  | > 100 µM |  | > 100 µM |  | > 100 µM |  | > 100 µM
COc1ncc(Nc2ncc([C@@H](C)N3CCN(S(C)(=O)=O)CC3)cc2-c2nc(C)nc(N)n2)cc1F | 0.0468 µM | 11.2 µM | 0.385 µM | > 100 µM | 0.452 µM | > 100 µM | 1.09 µM | 59.1 µM | < 0.0113 µM | 1.2 µM | 0.0402 µM | 4.13 µM | 0.325 µM | > 66.8 µM | 0.0139 µM | 0.0829 µM | 0.0192 µM | 2.86 µM | 0.186 µM | > 40.7 µM
COCN1COCN=C1NC#N |  | > 100 µM |  | > 100 µM |  | > 100 µM |  | > 100 µM |  | > 100 µM |  | > 100 µM |  | > 100 µM |  | > 100 µM |  | > 100 µM |  | > 100 µM
O=C1N2Cc3c4ccc5c3CN3C(=O)N6Cc7c(ccc(c7CN1C6(c1ccccc1)C23c1ccccc1)OCCOCCNCCOCCO4)OCCOCCNCCOCCO5 (stereo not given) |  | > 100 µM |  | > 100 µM |  | > 100 µM |  | > 100 µM |  | > 100 µM |  | > 100 µM |  | > 100 µM |  | > 100 µM |  | 97.4 µM |  | > 100 µM
O=c1[nH]c2ccccc2nc1/C=C(\O)c1ccccc1O |  | > 100 µM |  | > 100 µM |  | > 100 µM |  | > 100 µM |  | > 100 µM |  | > 100 µM |  | > 100 µM |  | > 100 µM |  | > 100 µM |  | > 100 µM
O=C(/C=C\c1ccc([N+](=O)[O-])cc1)c1ccccc(=O)c1O |  | 14.4 µM |  | > 100 µM |  | 37.3 µM |  | 6.63 µM |  | 3.13 µM |  | > 21.8 µM |  | 16.8 µM |  | 4.16 µM |  | 4.05 µM |  | 11.9 µM
O=C(CC1OC(O)C(Cl)=C1Cl)c1cccnc1 (stereo not given) |  | > 100 µM |  | > 57.7 µM |  | > 100 µM |  | > 100 µM |  | > 100 µM |  | > 100 µM |  | > 100 µM |  | > 100 µM |  | > 60.1 µM |  | > 100 µM
ClC/C=C/COC1CCCCO1 (stereo not given) |  | > 100 µM |  | > 100 µM |  | > 100 µM |  | 8.85 µM |  | > 100 µM |  | 97 µM |  | > 100 µM |  | > 100 µM |  | > 100 µM |  | > 100 µM
CC1(C)CNc2cc(NC(=O)c3cccnc3NCc3ccncc3)ccc21 | 21.9 µM | > 77.5 µM | 39.1 µM | > 100 µM | 28.1 µM | > 100 µM | 25.7 µM | > 95.4 µM | 12.9 µM | 48.4 µM | 23.8 µM | > 100 µM | 48.4 µM | > 100 µM | 19.9 µM | > 84.2 µM | 45.1 µM | > 100 µM | 31.9 µM | > 100 µM
Cc1cccc(C)c1NC(=O)C1=NC(=S)NC(c2ccccc2)C1c1nc2ccccc2s1 (stereo not given) |  | > 100 µM |  | > 100 µM |  | > 100 µM |  | > 100 µM |  | > 100 µM |  | > 100 µM |  | > 100 µM |  | > 100 µM |  | > 100 µM |  | > 100 µM
CC(C)(C)C1CCC2c3c([nH]c4ccccc34)C3C(=O)N(c4ccc(Cl)cc4)C(=O)C3C2C1 (stereo not given) | 30.3 µM and > 10 µM | > 100 µM | 56.5 µM and > 10 µM | > 100 µM | 53.9 µM and > 10 µM | > 100 µM | 60.8 µM and > 10 µM | > 100 µM | > 100 µM | > 100 µM | 23.6 µM and > 10 µM | 50.6 µM and > 10 µM | > 100 µM | > 100 µM | > 100 µM | > 100 µM | > 100 µM | > 100 µM | 67 µM and > 10 µM | > 100 µM
O=C(Nc1ccccc1)Nc1ccc2cc3ccc(NC(=O)Nc4ccccc4)cc3nc2c1 | 1.1 µM | 2.45 µM | 0.978 µM | 2.28 µM | 1.68 µM | 3.54 µM | 1.6 µM | 3.35 µM | 1.75 µM | 3.21 µM | 0.559 µM | 2.13 µM | 1.58 µM | 3.05 µM | 1.66 µM | 4.3 µM | 1.64 µM | 3.34 µM | 11.2 µM | > 100 µM
NCCCC[C@@H]1NC(=O)[C@H](CC(=O)O)NC(=O)CNC(=O)[C@H](CCCN=C(N)N)NC(=O)[C@@H](N)CSSC[C@@H](C(=O)O)NC(=O)[C@H](CC(=O)O)NC(=O)[C@@H]2CCCN2C(=O)CNC1=O | > 100 µM | > 100 µM | > 100 µM | > 100 µM | > 100 µM | > 100 µM | > 100 µM | > 100 µM | > 100 µM | > 100 µM | > 100 µM | > 100 µM | > 100 µM | > 100 µM | > 100 µM | > 100 µM | > 100 µM | > 100 µM | > 100 µM | > 100 µM
O=S(=O)(NNc1ccccc1)c1ccccc1 |  | 58.7 µM |  | 33.9 µM |  | > 100 µM |  | 31.1 µM |  | 30 µM |  | 99 µM |  | > 100 µM |  | 32.7 µM |  | > 100 µM |  | 23.5 µM
CCOC(=O)c1cc2c(cc1Cl)SC(=Nc1ccccc1)N(S(=O)(=O)c1ccc(Cl)cc1)S2(=O)=O | 12.2 µM | 26.3 µM | 10.6 µM | 25.9 µM | 12.1 µM | 32 µM | 15.5 µM | 42.8 µM | 10.2 µM | 23.7 µM | 11.7 µM | 37.3 µM | 20.2 µM | > 100 µM | 8.11 µM | 22.5 µM | 13.5 µM | 27.5 µM | 26.1 µM | 68 µM
